Data set [1] is described as follows: Cytotoxicity against human HL7702 cells assessed as inhibition of cell growth after 24 hrs by MTT assay. The conditions noted are these: L02, 24 h. In kind it is cell-based.
Data set [2] can be described thus: Hemolytic activity in rabbit RBC assessed as induction of hemolysis. Format: cell-based, Oryctolagus cuniculus, Erythrocyte. The conditions noted are these: red blood cells, read-out: HD50 (the source's name).
In data set [3] the test system is SMMC-7721. As to the kind of experiment: Cytotoxicity against human SMMC7721 cells assessed as inhibition of cell growth after 24 hrs by MTT assay. In kind it is functional, cell-based. The conditions noted are these: SMMC-7721, 24 h.
Data set [4] in a line: Cytotoxicity against human Bel7402 cells assessed as inhibition of cell growth after 24 hrs by MTT assay. In kind it is functional, cell-based. The conditions noted are these: Bel-7402, 24 h.
For data set [5], the system named is A549. In words: Cytotoxicity against human A549 cells assessed as inhibition of cell growth after 24 hrs by MTT assay. Format: functional, cell-based. The conditions noted are these: A549, 24 h. A general note: Tetrazolium assays rely on reduction of a dye to a coloured formazan, in cell work by metabolically active cells.
A short description of data set [6]: Ratio of hemolytic HD50 for PSA to hemolytic HD50 for compound in rabbit RBC. In kind it is ADME, cell-based, Oryctolagus cuniculus. The conditions noted are these: erythrocyte.
Data set [7] deals with Mus musculus. In words: Toxicity in mouse assessed as death time at 0.1 mL/10 g, iv. In kind it is organism-based. The conditions noted are these: in vivo.
A short description of data set [8]: Toxicity in iv dosed mouse assessed as tolerance dose. Format: organism-based. The conditions noted are these: in vivo.
For data set [9], the system named is Mus musculus. As to the kind of experiment: Toxicity in mouse assessed as induction of induction of death at 0.1 mL/10 g, iv. The conditions noted are these: in vivo. In kind it is organism-based.
Data set [10] has as its system Mus musculus. As to the kind of experiment: Toxicity in mouse assessed as induction of hematuria at 0.1 mL/10 g, iv. In kind it is organism-based. The conditions noted are these: in vivo.

The results in this text go back to ChEMBL document CHEMBL3425467, “Synthesis, cytotoxicity and haemolytic activity of Pulsatilla saponin A, D derivatives” (Bioorg Med Chem Lett, 2015).

On to `C[C@@H]1O[C@@H](O[C@H]2[C@H](O[C@H]3CC[C@@]4(C)[C@@H](CC[C@]5(C)[C@@H]4CC=C4[C@@H]6CC(C)(C)CC[C@]6(C(=O)NC6CC6)CC[C@]45C)[C@]3(C)CO)OC[C@H](O)[C@@H]2O)[C@H](O)[C@H](O)[C@H]1O`, for which the IC50 (in general, the point on the concentration scale where inhibition reaches its midpoint) in data set [1] came to 36.2 µM; in data set [3], 32.6 µM; in data set [4], 69.2 µM; in [5], 38.3 µM. Besides, in [2], the HC50 worked out at 127 µM.

For `C[C@@H]1O[C@@H](O[C@H]2[C@H](O[C@H]3CC[C@@]4(C)[C@@H](CC[C@]5(C)[C@@H]4CC=C4[C@@H]6CC(C)(C)CC[C@]6(C(N)=O)CC[C@]45C)[C@]3(C)CO)OC[C@H](O)[C@@H]2O)[C@H](O)[C@H](O)[C@H]1O`, the IC50 in data set [1], in data set [3], in data set [4] and in data set [5] was > 100 µM in each case. Also, in [2], the HC50 is 30.2 µM.

Consider `CC(=O)OCOC(=O)[C@]12CCC(C)(C)C[C@H]1C1=CC[C@@H]3[C@@]4(C)CC[C@H](O[C@@H]5OC[C@H](O)[C@H](O)[C@H]5O[C@@H]5O[C@@H](C)[C@H](O)[C@@H](O)[C@H]5O)[C@@](C)(CO)[C@@H]4CC[C@@]3(C)[C@]1(C)CC2`, for which the IC50 in [1] was 20.5 µM; in data set [3] it was 13.2 µM; in [4], 33.8 µM; in [5], 21.3 µM. Also, the HC50 in [2] came out at 3.6 µM.

Consider `C[C@@H]1O[C@@H](O[C@H]2[C@H](O[C@H]3CC[C@@]4(C)[C@@H](CC[C@]5(C)[C@@H]4CC=C4[C@@H]6CC(C)(C)CC[C@]6(C(=O)Nc6ccccc6O)CC[C@]45C)[C@]3(C)CO)OC[C@H](O)[C@@H]2O)[C@H](O)[C@H](O)[C@H]1O`, for which the 50% inhibitory concentration (IC50) is 85.5 µM in [1], 1.3 µM in [3], > 100 µM in data set [4] and > 100 µM in data set [5]. Further, the HC50 in data set [2] was found to be 58.2 µM.

For `C[C@@H]1O[C@@H](O[C@H]2[C@H](O[C@H]3CC[C@@]4(C)[C@@H](CC[C@]5(C)[C@@H]4CC=C4[C@@H]6CC(C)(C)CC[C@]6(C(=O)N6CCN(CCC(=O)O)CC6)CC[C@]45C)[C@]3(C)CO)OC[C@H](O)[C@@H]2O)[C@H](O)[C@H](O)[C@H]1O`, the Ratio in [6] is listed as 20. Also, the IC50 in data set [1] was 46.6 µM; in [3], > 100 µM; in data set [4] it was > 100 µM; in data set [5], 23.4 µM. Besides, the HC50 in [2] was 195 µM.

Take `COC(=O)[C@H]1CCCN1C(=O)[C@]12CCC(C)(C)C[C@H]1C1=CC[C@@H]3[C@@]4(C)CC[C@H](O[C@@H]5OC[C@H](O)[C@H](O)[C@H]5O[C@@H]5O[C@@H](C)[C@H](O)[C@@H](O)[C@H]5O)[C@@](C)(CO)[C@@H]4CC[C@@]3(C)[C@]1(C)CC2`: the Ratio in data set [6] is 20. The IC50 in data set [1] was 36.6 µM; in data set [3] it was 36 µM; in [4], 59.6 µM; in [5], 43.2 µM. Besides, in data set [2], the HC50 is 494 µM.

For `C[C@@H]1O[C@@H](O[C@H]2[C@H](O[C@H]3CC[C@@]4(C)[C@@H](CC[C@]5(C)[C@@H]4CC=C4[C@@H]6CC(C)(C)CC[C@]6(C(=O)N[C@H](CO)C(=O)O)CC[C@]45C)[C@]3(C)CO)OC[C@H](O)[C@@H]2O)[C@H](O)[C@H](O)[C@H]1O`, the 50% inhibitory concentration (IC50) in data set [1] worked out at 25.6 µM; in [3], 26.6 µM; in data set [4], 22.3 µM; in [5] it was 32.5 µM. Besides, the HC50 in [2] was 8.3 µM.

As for `COC(=O)[C@]12CCC(C)(C)C[C@H]1C1=CC[C@@H]3[C@@]4(C)CC[C@H](O[C@@H]5OC[C@H](O)[C@H](O)[C@H]5O[C@@H]5O[C@@H](C)[C@H](O)[C@@H](O)[C@H]5O)[C@@](C)(CO)[C@@H]4CC[C@@]3(C)[C@]1(C)CC2`, the half-maximal inhibitory concentration (IC50) in data set [1] was 36.3 µM; in data set [3], 40.8 µM; in [4], 72.1 µM; in data set [5] it was 27 µM. Also, the HC50 in [2] was 8.5 µM.

Take `CCN(CC)CCNC(=O)[C@]12CCC(C)(C)C[C@H]1C1=CC[C@@H]3[C@@]4(C)CC[C@H](O[C@@H]5OC[C@H](O)[C@H](O)[C@H]5O[C@@H]5O[C@@H](C)[C@H](O)[C@@H](O)[C@H]5O)[C@@](C)(CO)[C@@H]4CC[C@@]3(C)[C@]1(C)CC2`: the half-inhibitory concentration (IC50) in [1] was 40.6 µM; in [3] it was 48 µM; in data set [4] it was > 100 µM; in data set [5] it was 65.3 µM. Moreover, the HC50 in [2] worked out at 75.3 µM.

As to `C[C@@H]1O[C@@H](O[C@H]2[C@H](O[C@H]3CC[C@@]4(C)[C@@H](CC[C@]5(C)[C@@H]4CC=C4[C@@H]6CC(C)(C)CC[C@]6(C(=O)NCC(=O)[O-])CC[C@]45C)[C@]3(C)CO)OC[C@H](O[C@@H]3O[C@H](CO)[C@@H](O)[C@H](O)[C@H]3O)[C@@H]2O)[C@H](O)[C@H](O)[C@H]1O.[Na+]`, the Time in [7] was > 14 days. Further, the MTD (usually the largest dose that counted as tolerated) in data set [8] was > 160 mg/kg. The Activity result in data set [9] and in [10] was “Non-toxic” each time.

Consider `C[C@@H]1O[C@@H](O[C@H]2[C@H](O[C@H]3CC[C@@]4(C)[C@@H](CC[C@]5(C)[C@@H]4CC=C4[C@@H]6CC(C)(C)CC[C@]6(C(=O)[O-])CC[C@]45C)[C@]3(C)CO)OC[C@H](O)[C@@H]2O)[C@H](O)[C@H](O)[C@H]1O.[Na+]`, for which, in [7], the Time was < 0.0417 days. Also, the MTD in [8] stood at 10 mg/kg. For the same compound, the Activity result in data set [9] and in data set [10] was “Toxic” throughout.

For `COC(=O)[C@@H](CO)NC(=O)[C@]12CCC(C)(C)C[C@H]1C1=CC[C@@H]3[C@@]4(C)CC[C@H](O[C@@H]5OC[C@H](O)[C@H](O)[C@H]5O[C@@H]5O[C@@H](C)[C@H](O)[C@@H](O)[C@H]5O)[C@@](C)(CO)[C@@H]4CC[C@@]3(C)[C@]1(C)CC2`, the Ratio in [6] is 20. Besides, the IC50 is > 100 µM in data set [1], 88.3 µM in [3], > 100 µM in data set [4] and > 100 µM in data set [5]. Moreover, the HC50 in [2] turned out to be 144 µM.

As to `C[C@@H]1O[C@@H](O[C@H]2[C@H](O[C@H]3CC[C@@]4(C)[C@@H](CC[C@]5(C)[C@@H]4CC=C4[C@@H]6CC(C)(C)CC[C@]6(C(=O)NCC(=O)O)CC[C@]45C)[C@]3(C)CO)OC[C@H](O)[C@@H]2O)[C@H](O)[C@H](O)[C@H]1O`, the Ratio in [6] was determined as 20. Also, the IC50 in [1] is > 100 µM; in data set [3], 3.2 µM; in data set [4], 0.9 µM; in data set [5], 1 µM. In addition, the HC50 in data set [2] is > 500 µM.

On to `C[C@@H]1O[C@@H](O[C@H]2[C@H](O[C@H]3CC[C@@]4(C)[C@@H](CC[C@]5(C)[C@@H]4CC=C4[C@@H]6CC(C)(C)CC[C@]6(C(=O)NCCN6CCCC6)CC[C@]45C)[C@]3(C)CO)OC[C@H](O)[C@@H]2O)[C@H](O)[C@H](O)[C@H]1O`, for which the IC50 in data set [1] was 44.4 µM; in data set [3], 46.8 µM; in [4], > 100 µM; in [5], > 100 µM. Moreover, the HC50 in data set [2] was 104 µM.

Regarding `C[C@@H]1O[C@@H](O[C@H]2[C@H](O[C@H]3CC[C@@]4(C)[C@@H](CC[C@]5(C)[C@@H]4CC=C4[C@@H]6CC(C)(C)CC[C@]6(C(=O)N6CCOCC6)CC[C@]45C)[C@]3(C)CO)OC[C@H](O)[C@@H]2O)[C@H](O)[C@H](O)[C@H]1O`, the Ratio in [6] came to 20. Also, the IC50 was 22 µM in data set [1], 17.2 µM in data set [3], 37.9 µM in data set [4] and 34.7 µM in data set [5]. The HC50 in data set [2] was found to be 230 µM.

With `COC(=O)CCN1CCN(C(=O)[C@]23CCC(C)(C)C[C@H]2C2=CC[C@@H]4[C@@]5(C)CC[C@H](O[C@@H]6OC[C@H](O)[C@H](O)[C@H]6O[C@@H]6O[C@@H](C)[C@H](O)[C@@H](O)[C@H]6O)[C@@](C)(CO)[C@@H]5CC[C@@]4(C)[C@]2(C)CC3)CC1`, the concentration for half-maximal inhibition (IC50) in data set [1] is 61.7 µM; in data set [3], 38.3 µM; in data set [4], 53.2 µM; in data set [5], 14 µM. For the same compound, the HC50 in data set [2] amounted to 57.7 µM.

`C[C@@H]1O[C@@H](O[C@H]2[C@H](O[C@H]3CC[C@@]4(C)[C@@H](CC[C@]5(C)[C@@H]4CC=C4[C@@H]6CC(C)(C)CC[C@]6(C(=O)N6CCC[C@@H]6C(=O)O)CC[C@]45C)[C@]3(C)CO)OC[C@H](O)[C@@H]2O)[C@H](O)[C@H](O)[C@H]1O`: the concentration for half-maximal inhibition (IC50) in [1] was determined as 53.7 µM; in data set [3], 41.4 µM; in [4] it was 64 µM; in data set [5] it was 61.6 µM. The HC50 in [2] was 22.9 µM.

In the case of `C[C@@H]1O[C@@H](O[C@H]2[C@H](O[C@H]3CC[C@@]4(C)[C@@H](CC[C@]5(C)[C@@H]4CC=C4[C@@H]6CC(C)(C)CC[C@]6(C(=O)Nc6ccc(C(=O)O)cc6)CC[C@]45C)[C@]3(C)CO)OC[C@H](O)[C@@H]2O)[C@H](O)[C@H](O)[C@H]1O`, the Ratio in data set [6] is 20. Besides, the concentration for half-maximal inhibition (IC50) in data set [1] was 0.7 µM; in data set [3] it was > 100 µM; in data set [4], 4.2 µM; in [5], 1.1 µM. The HC50 in data set [2] amounted to 356 µM.
